Assay results reported in patent US7183252B2, “Indole peptidomimetics as thrombin receptor antagonists” (Ortho-McNeil Pharmaceutical, Inc., priority 1999, dated 2007).
Like-named read-outs stand apart in the source and are kept apart here.

Tests used:
[1] = biological target: T1, thrombin receptor (PAR-1) (Homo sapiens, UniProt P25116); assay: In vitro thrombin receptor binding assay (CHRF membranes); conditions: tritiated 721-40 radioligand, read-out: Bndg IC50 (Thrombin receptor binding)
T1 construct: CHRF membranes (Jones, Biochim. Biophys. Acta 1992, 1136, 272) are thawed from −70° C; endogenous in cells; host or cells: CHRF cell membranes
T1 sequence (P25116 22-425): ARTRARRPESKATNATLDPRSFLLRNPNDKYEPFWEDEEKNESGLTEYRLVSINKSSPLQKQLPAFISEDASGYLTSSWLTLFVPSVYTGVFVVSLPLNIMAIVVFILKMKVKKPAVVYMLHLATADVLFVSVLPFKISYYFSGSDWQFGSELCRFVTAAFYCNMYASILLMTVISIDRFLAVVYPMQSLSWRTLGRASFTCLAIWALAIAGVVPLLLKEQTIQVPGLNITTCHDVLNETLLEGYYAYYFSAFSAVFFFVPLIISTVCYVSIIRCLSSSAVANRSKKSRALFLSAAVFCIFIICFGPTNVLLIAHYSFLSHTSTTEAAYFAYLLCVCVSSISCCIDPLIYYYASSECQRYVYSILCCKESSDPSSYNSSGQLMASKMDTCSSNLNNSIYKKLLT
Description: In Vitro Thrombin Receptor Binding Assay
CHRF membranes (Jones, Biochim. Biophys. Acta 1992, 1136, 272) are thawed from −70° C., centrifuged at maximum speed for 5 min, washed twice with binding buffer (50 mM HEPES containing 5 mM MgCl2 and 0.1% BSA), and re-suspended in binding buffer (25 μg/[…]). 100 μL of membranes are added to the 24-Wallac plates and delivered to the Tomtech apparatus. In a typical experiment, 6 μL of samples (from a 125 μg/mL intermediary plate, 20% DMSO) and 44 μL buffer are delivered to the plates (final conc. of compounds is 3.7 μg/mL, 0.6% DMSO). Similarly, 6 μL 20% DMSO and 44 μL buffer are delivered to both column 1 (NSB) and column 12 (TB). 10 μL Ser-pFPhe-Har-Leu-Har-Lys-Tyr-NH2 (721–40; 500 μM in deionized water) is added to column 1. 50 μL tritiated 721–40 (specific activity 46 Ci/mmol) is added to all the wells. The plates are mixed well for 20 seconds, incubated for 30 min,and then harvested with 10 mM HEPES/138 mM NaCl using the Skatron harvester. The filters (GF/C Brandel FPXLR 296) are presoaked 3 h in 0.5% polyethylenimine in HEPES/0.1M N-acetylglucosamine) are set in saran wrap and dried for 3 min in the microwave, and placed in sample bags (Wallac 1450-432). 4.5 mL scintillation fluid (Wallac, Betaplate Scint 1205-440) is added. The bags are sealed, placed in filter cassettes (Wallac 1450-104), and analyzed on the microbeta counter.
(§1) Table 7 contains IC50 values (μM) of the compounds in a thrombin receptor binding assay, and IC50 values (μM) against platelet aggregation stimulated by thrombin.

[2] = system: gel-filtered platelets; assay: In vitro inhibition of thrombin-induced gel-filtered platelet aggregation; assay type: cell-based; conditions: human gel-filtered platelets, agonist thrombin 50 μL of 1 unit/mL, read-out: Thrmb IC50 (Thrombin-induced aggregation of gel-filtered platelets)
Description: In Vitro Inhibition of Thrombin-Induced Gel-Filtered Platelet Aggregation Assay
The percentage of platelet aggregation is calculated as an increase in light transmission of compound-treated platelet concentrate vs. control-treated platelet concentrate. Human blood is obtained from drug free, normal donors in tubes containing 0.13M sodium citrate. Platelet rich plasma (PRP) is collected by centrifugation of whole blood at 200×g for 10 min at 25° C. The PRP (5 mL) is gel filtered through Sepharose 2B (bed volume 50 mL), and the platelet count is adjusted to 2×10^7 platelets per sample. The following constituents are added to a siliconized cuvette: concentrated platelet filtrate and Tyrode's buffer (0.14M NaCl, 0.0027M KCl, 0.012M NaHCO3, 0.76 mM Na2HPO4, 0.0055M glucose, 2 mg/mL BSA and 5.0 mM HEPES @ pH 7.4) in an amount equal to 350 μL 50 μL of 20 mM calcium and 50 μL of the test compound. Aggregation is monitored in a BIODATA aggregometer for the 3 min following the addition of agonist (thrombin 50 μL of 1 unit/mL).
as §1

SMILES | IC50 [1] | IC50 ([2]; Platelet) | IC50 [2]
NCCCNC(=O)[C@H](Cc1ccncc1)NC(=O)[C@H](Cc1ccc(Cl)cc1)NC(=O)Nc1ccc2c(CN3CCCC3)cn(Cc3c(Cl)cccc3Cl)c2c1 [Compound 145] | 500 nM | 250 nM | 
NCCNC(=O)[C@H](Cc1ccccc1)NC(=O)[C@H](Cc1ccc(Cl)cc1)NC(=O)Nc1ccc2c(CN3CCCC3)cn(Cc3c(Cl)cccc3Cl)c2c1 [Compound 133] | 1500 nM | 860 nM | 
NCCNC(=O)[C@H](Cc1ccncc1)NC(=O)[C@H](Cc1ccc(Cl)cc1)NC(=O)Nc1ccc2c(CN3CCCC3)cn(Cc3c(Cl)cccc3Cl)c2c1 [Compound 135, L-Alaninamide, 4-chloro-N-[[[1-[(2,6-dichlorophenyl)methyl]-3-(1-pyrrolidinylmethyl)-1H-indol-6-yl]amino]carbonyl]-L-phenylalanyl-N-(2-aminoethyl)-3-(4-pyridinyl)-] | 890 nM |  | 690 nM
CC(=N)NCCNC(=O)[C@H](Cc1ccncc1)NC(=O)[C@H](Cc1ccc(Cl)cc1)NC(=O)Nc1ccc2c(CN3CCCC3)cn(Cc3c(Cl)cccc3Cl)c2c1 [Compound 139] | 1000 nM | 330 nM | 
C[C@@H](NC(=O)[C@H](CCN)NC(=O)[C@H](Cc1ccc(F)c(F)c1)NC(=O)Nc1ccc2c(CN3CCCC3)cn(Cc3c(Cl)cccc3Cl)c2c1)c1ccccc1 [Compound 157] | 480 nM |  | 660 nM
NCC[C@H](NC(=O)[C@H](CC1CCCCC1)NC(=O)Nc1ccc2c(CN3CCCC3)cn(Cc3c(Cl)cccc3Cl)c2c1)C(=O)NCc1ccccc1 [Compound 155] | 13500 nM | 11000 nM | 
Cc1ccccc1Cn1cc(CN2CCC(N(C)C)C2)c2ccc(NC(=O)N[C@H](Cc3ccc(F)c(F)c3)C(=O)N[C@@H](CCCN=C(N)N)C(=O)NCc3ccccc3)cc21 (some centres unmarked) [Compound 90] | 15800 nM | > 10000 nM | 
N=C(N)NCCC[C@H](NC(=O)[C@H](Cc1ccc(F)cc1)NC(=O)Nc1ccc2c(CN3CCCC3)cn(Cc3ccc(F)cc3)c2c1)C(=O)NCc1ccccc1 [Compound 26] | 4300 nM | 550 nM | 
O=C(Nc1ccc2c(CN3CCCC3)cn(Cc3c(Cl)cccc3Cl)c2c1)N[C@@H](Cc1ccc(F)c(F)c1)C(=O)N[C@@H](Cc1c[nH]cn1)C(=O)NCc1ccccc1 [Compound 72] | 1300 nM | 460 nM | 
CCOc1ccc(C[C@H](NC(=O)Nc2ccc3c(CN4CCCC4)cn(Cc4cccc(C)c4)c3c2)C(=O)N[C@@H](CCCNC(=N)N)C(=O)NCc2ccccc2)cc1 [Compound 42] | 2000 nM | 24700 nM | 
CCN(CC)Cc1cn(Cc2ccc(F)cc2)c2cc(NC(=O)N[C@@H](Cc3ccc(OC)cc3)C(=O)N[C@@H](CCCNC(=N)N)C(=O)NCCCc3ccccc3)ccc12 [Compound 5] | 1800 nM | 2900 nM | 
CCCN(CCC)Cc1cn(Cc2c(Cl)cccc2Cl)c2cc(NC(=O)N[C@@H](Cc3ccc(OC)cc3)C(=O)N[C@@H](CCCNC(=N)N)C(=O)NCc3ccccc3)ccc12 [Compound 41] | 10400 nM | 4800 nM | 
NC(N)=NCCC[C@H](NC(=O)[C@H](Cc1cccc(F)c1)NC(=O)Nc1ccc2c(CN3CCC(=O)CC3)cn(Cc3c(Cl)cccc3Cl)c2c1)C(=O)NCc1ccccc1 [Compound 88] | 1700 nM | 12600 nM | 
COc1ccc(C[C@H](NC(=O)Nc2ccc3c(CN4CCCC4)cn(Cc4ccccc4C)c3c2)C(=O)N[C@@H](CCCNC(=N)N)C(=O)NCc2ccccc2)cc1 [Compound 17] | 970 nM | 420 nM | 
N=C(N)NCCC[C@H](NC(=O)[C@H](Cc1ccc(F)c(F)c1)NC(=O)Nc1ccc2c(CN3CCCC3)cn(CC3CCCCC3)c2c1)C(=O)NCc1ccccc1 [Compound 74] | 560 nM | 2900 nM | 
NCCC[C@H](NC(=O)[C@H](Cc1ccc(F)c(F)c1)NC(=O)Nc1ccc2c(CN3CCCC3)cn(Cc3c(Cl)cccc3Cl)c2c1)C(=O)NCc1ccncc1 [Compound 98] | 2300 nM | 1800 nM | 

SMILES | IC50 [1] | IC50 ([2]; Platelet) | IC50 [2]
COc1ccc(C[C@H](NC(=O)Nc2ccc3c(CN4CCCCC4)cn(Cc4ccc(F)cc4)c3c2)C(=O)N[C@@H](CCCNC(=N)N)C(=O)NCC2CCCCC2)cc1 [Compound 8] | 2300 nM | 8000 nM | 
NCCC[C@H](NC(=O)[C@H](Cc1ccc(F)c(F)c1)NC(=O)Nc1ccc2c(CN3CCCC3)cn(Cc3c(Cl)cccc3Cl)c2c1)C(=O)NCc1cccs1 [Compound 113] | 850 nM | 720 nM | 
NCCNC(=O)[C@@H](Cc1ccncc1)NC(=O)[C@@H](Cc1ccc(F)c(F)c1)NC(=O)c1ccc2c(CN3CCCC3)cn(Cc3c(Cl)cccc3Cl)c2c1 [Compound 176] | 43200 nM |  | 45700 nM
COc1ccc(C[C@H](NC(=O)Nc2ccc3c(CN4CCCC4)cn(Cc4cccc(F)c4)c3c2)C(=O)N[C@@H](CCCNC(=N)N)C(=O)NCc2ccccc2)cc1 [Compound 6] | 6600 nM | 3500 nM | 
COc1ccc(C[C@H](NC(=O)Nc2ccc3c(CN4CCC4)cn(Cc4ccc(F)cc4)c3c2)C(=O)N[C@@H](CCCNC(=N)N)C(=O)NCc2ccccc2)cc1 [Compound 44] | 3300 nM | 9700 nM | 
N=C(N)NCCC[C@H](NC(=O)CCNC(=O)[C@H](Cc1ccc(F)c(F)c1)NC(=O)Nc1ccc2c(CN3CCCC3)cn(Cc3c(Cl)cccc3Cl)c2c1)C(=O)NCc1ccccc1 [Compound 108] | 2600 nM | 3700 nM | 
COc1ccc(C[C@H](NC(=O)Nc2ccc3c(CN4CCCC4)cn(Cc4ccc(C(F)(F)F)cc4)c3c2)C(=O)N[C@@H](CCCNC(=N)N)C(=O)NCc2ccccc2)cc1 [Compound 18] | 3700 nM | 14000 nM | 
CCN(Cc1ccncc1)C(=O)[C@H](CCCN)NC(=O)[C@H](Cc1ccc(F)c(F)c1)NC(=O)Nc1ccc2c(CN3CCCC3)cn(Cc3c(Cl)cccc3Cl)c2c1 [Compound 110] | 2900 nM | 3700 nM | 
CC(=N)NCC[C@H](NC(=O)[C@H](Cc1ccc(F)c(F)c1)NC(=O)Nc1ccc2c(CN3CCCC3)cn(Cc3c(Cl)cccc3Cl)c2c1)C(=O)NCc1ccccc1 [Compound 118] | 430 nM | 280 nM | 
N=C(N)NCCC[C@H](NC(=O)[C@H](Cc1ccccc1Cl)NC(=O)Nc1ccc2c(CN3CCCCC3)cn(Cc3c(Cl)cccc3Cl)c2c1)C(=O)NCc1ccccc1 [Compound 86] | 510 nM | 2900 nM | 
CSCC[C@H](NC(=O)[C@H](Cc1ccc(F)c(F)c1)NC(=O)Nc1ccc2c(CN3CCCC3)cn(Cc3c(Cl)cccc3Cl)c2c1)C(=O)NCc1ccccc1 [Compound 104] | 11200 nM | 530 nM | 
COc1ccc(C[C@H](NC(=O)Nc2ccc3c(CN4CCCC4)cn(Cc4ccccc4F)c3c2)C(=O)N[C@@H](CCCNC(=N)N)C(=O)NCc2ccccc2)cc1 [Compound 7] | 3600 nM | 1310 nM | 
Cc1cccc(Cn2cc(CN3CCCC3)c3ccc(NC(=O)N[C@@H](Cc4ccc(F)c(F)c4)C(=O)N[C@@H](Cc4cccs4)C(=O)NCCCN)cc32)c1 [Compound 153] | 27000 nM | 790 nM | 
CC(C)NCCCC[C@H](NC(=O)[C@H](Cc1ccc(F)c(F)c1)NC(=O)Nc1ccc2c(CN3CCCCC3)cn(Cc3c(Cl)cccc3Cl)c2c1)C(=O)NCc1ccccc1 [Compound 67] | 450 nM | 420 nM | 
CCN(CC)Cc1cn(CCCc2ccccc2)c2cc(NC(=O)N[C@@H](Cc3ccc(F)c(F)c3)C(=O)N[C@@H](CCCNC(=N)N)C(=O)NCc3ccccc3)ccc12 [Compound 75] | 230 nM | 2200 nM | 
